Entries after “also recorded” stand apart in the source; their conditions may differ. Where two headings read alike, the source gives them in different places.
Columns and labels:
[1] = Open-label single-dose (brigatinib 90 mg oral, fasting) plasma pharmacokinetic study, severe renal impairment vs matched healthy volunteers; assay type: in vivo, human; set-up: Cmax,u LS Mean (SE): unit not given beside the values; settings: for half-life / Cmax: human, plasma, 90 mg; for half-life: oral, after a single dose, read-out: mean t1/2 (converted); for Cmax: po, read-out: total brigatinib Cmax, geometric mean (CV%); for Cmax / Tmax, median (range): single oral 90 mg; for V/F,u, geometric mean (geometric % CV): unbound apparent volume of distribution; for Cmax,u, Range / Cmax,u, geometric mean (geometric % CV): unbound
Procedure: This was an open-label, parallel-group study that enrolled patients with severe renal impairment and matched healthy volunteers with normal renal function. The study consisted of a 28-day screening period and a single nine-day inpatient treatment period (day − 1 to day 8). On the morning of day 1, each participant received a single oral dose of brigatinib 90 mg under fasting conditions.Participants were required to abstain from food for approximately 10 h prior to study drug administration and for approximately four hours postdose, with the exception of the standardized snack. Due to the high prevalence of diabetes in patients with severe renal impairment, the standardized snack (not high fat or high calorie) was given to all participants at 2.5 h postdose. Water was permitted ad libitum except for one hour prior to dosing and for approximately one hour postdose. Participants underwent end-of-study procedures and were discharged from the clinical site on day 8.
Healthy volunteers with normal renal function (eGFR ≥ 90 mL/min/1.73 m^2) were matched to patients with severe renal impairment by age (± 10 years), sex, body mass index (BMI; ±15 % at screening), and if possible, smoking habits. Patients with severe renal impairment were defined as those with an eGFR < 30 mL/min/1.73 m^2. eGFR was calculated using the Modification of Diet in Renal Disease equation (MDRD). Estimated creatinine clearance was based on the Cockcroft-Gault equation.
Blood samples were collected before brigatinib administration (predose) and at 0.5, 1, 1.5, 2, 2.5, 3, 4, 6, 8, 12, 24, 36, 48, 60, 72, 96, 120, 144, and 168 h after brigatinib administration to determine plasma brigatinib concentrations. Urine was collected predose and during intervals (0–8, 8–12, 12–24, 24–48, 48–72, 72–96, 96–120, and 120–168 h) after brigatinib administration to determine urine brigatinib concentrations. Urine samples were subsequently diluted 50:50 (v:v) urine:isopropanol at the clinical site.
Plasma and urine samples were analyzed by Charles River Laboratories, Inc. (Worcester, MA, USA) by LC-MS/MS, as previously reported. Plasma samples were analyzed using a dual-range assay with a lower limit of quantitation of 0.100 ng/mL and an upper limit of 2500 ng/mL [11]. Urine samples were analyzed using a single-range assay with a lower limit of quantitation of 25.0 ng/mL and upper limit of 2500 ng/mL [11].
Individual participant plasma concentration-time profiles were analyzed via noncompartmental analysis methods using Phoenix WinNonlin (version 6.4) to estimate PK parameters. Plasma PK parameters calculated for brigatinib included maximum observed plasma concentration (Cmax); Tmax; area under the plasma concentration-time curve from time zero to the time of the last measurable concentration (AUC0 − last); AUC from time zero to infinity (AUC0−∞); terminal elimination half-life (t1/2); apparent oral clearance (CL/F); and apparent volume of distribution (V/F). The fraction of unbound brigatinib in plasma was determined using the following formula: % free (unbound) = [free brigatinib concentration measured in buffer after RED]/[total concentration measured in plasma] X 100. Unbound brigatinib plasma PK parameters (except unbound CL/F and V/F, which were calculated as total CL/F or total V/F divided by the overall mean fraction unbound) were calculated using the following formula: unbound PK parameter = (parameter based on total concentrations) x (individual participant’s overall mean fraction unbound value). Urinary PK parameters included the amount of brigatinib excreted from time zero to time t (Ae0 − t,), fraction of the dose excreted (%) from time zero to time t (Fe0 − t), and renal clearance (CLR).
Descriptive statistics, including number of observations (n), arithmetic mean, standard deviation (SD), coefficient of variation (CV%), median, minimum, and maximum, were calculated for each time point for brigatinib plasma concentrations in each study group. […]

[2] = Safety assessment (adverse events, laboratory, ECG, vital signs) in the single-dose study; assay type: in vivo, human; settings: single 90 mg dose
Procedure: Adverse events were recorded throughout the study. Physical examinations were performed at screening and on days − 1 and 8; height, weight, and BMI were collected only at screening. Vital signs were recorded at screening; on day − 1; at 0.5, 1, 2, 3, 4, 6, 8, 12, 24, 36, 48, 60, 72, 96, 120, and 144 h after brigatinib administration; and on day 8. Electrocardiograms were conducted at screening, day − 1, before the brigatinib dose, 3 and 48 h after brigatinib, and on day 8. Clinical laboratory evaluations were performed at screening and on days − 1 and 8.
Descriptive statistics, including number of observations (n), arithmetic mean, standard deviation (SD), coefficient of variation (CV%), median, minimum, and maximum, were calculated for each time point for brigatinib plasma concentrations in each study group. Arithmetic mean; SD; CV%; median, minimum, and maximum values; and geometric mean and geometric CV% were calculated for all PK parameters except Tmax, which was reported as median (minimum, maximum). Statistical comparisons of brigatinib PK parameters (unbound) were made using a one-factor analysis of variance, and 90 % CIs for the geometric mean ratios (GMRs) were calculated for the comparison of Cmax, AUC0 − last, and AUC0−∞ between study groups. Descriptive statistics were used to present safety outcomes, including number and percentage of participants with adverse events.

[3] = cited from earlier work
[4] = set-up: method as in ref 11 = [11]; PMID 31287236; doi:10.1002/cpdd.723; 11. Tugnait M Gupta N Hanley MJ Sonnichsen D Kerstein D Dorer DJ Venkatakrishnan K Narasimhan N Effects of strong CYP2C8 or CYP3A inhibition and CYP3A induction on the pharmacokinetics of brigatinib; settings: cited from earlier work
[5] = set-up: method as in PMID 32816246; settings: eGFR 30 to < 90 mL/min/1.73 m^2; population PK analyses; cited from earlier work
native EML4-ALK = test system: native EML4-ALK; set-up: method as in PMID 27780853; settings: compared with crizotinib, ceritinib, and alectinib; nonclinical studies; cited from earlier work
[6] = Severe Renal Impairment (n = 8)
[7] = healthy volunteers with normal renal function
[8] = patients with severe renal impairment
[9] = severe renal impairment compared with normal renal function

Which “V/F,u, Range” value ([1]; Normal Renal Function (n = 8)) does the source give for `COc1cc(N2CCC(N3CCN(C)CC3)CC2)ccc1Nc1ncc(Cl)c(Nc2ccccc2P(C)(C)=O)n1` [brigatinib] here?
The value was 5898–13,744 L.

And the “V/F,u, Range” value [1, 6]?
Its value is 3556 to 8914 L.

What about the “Cmax,u LS Mean (SE)” value ([1]; Severe renal impairment vs. Normal renal function) of the same molecule?
The value was 0.130 (0.1330).

And the half-life [1, 7]?
The half-life was ~42 h.

And the half-life [1, 8]?
Its half-life is ~54 h.

And the Cmax [1, 7]?
The Cmax was 362 ng/mL.

And the Cmax [1, 8]?
Its Cmax is 471 ng/mL.

And the “Tmax, median (range)” value ([1]; normal renal function group)?
The value was 2.0 (1.0–4.0) hours.

What about the “total brigatinib AUC0 − last, percent higher” value [1, 9] of the same molecule?
Its value is “more than 100%”.

What about the “total brigatinib AUC0−∞, percent higher” value [1, 9] of the same molecule?
The value was “more than 100%”.

And the “Tmax, median (range)” value ([1]; severe renal impairment group)?
The value was 2.5 (1.0–3.0) hours.

And the “unbound brigatinib AUC0 − last, percent higher” value ([1]; severe renal impairment versus normal renal function)?
The value was 77%.

And the “V/F,u, geometric mean (geometric % CV)” value ([1]; Normal Renal Function (n = 8))?
The value was 8327 (30.4) L.

What about the “V/F,u, geometric mean (geometric % CV)” value [1, 6] of the same molecule?
The value was 5532 (31.4) L.

And the “Cmax,u, Range” value ([1]; Normal Renal Function (n = 8))?
Its value is 23.9 to 45.3 ng/mL.

What about the “Cmax,u, geometric mean (geometric % CV)” value ([1]; Normal Renal Function (n = 8)) of the same molecule?
Its value is 32.29 (25.1) ng/mL.

And the “Cmax,u, Range” value [1, 6]?
The value was 25.2 to 55.6 ng/mL.

What about the “Cmax,u, geometric mean (geometric % CV)” value [1, 6] of the same molecule?
The value was 36.76 (29.0) ng/mL.

And the “clinically significant laboratory values or electrocardiogram findings” value ([2]; all participants)?
The value was “no participant had clinically significant laboratory values or electrocardiogram findings”.

What about the adverse events ([2]; healthy volunteers with normal renal function (n = 8)) of the same molecule?
The adverse events was “No healthy volunteers with normal renal function reported adverse events”.

What about the treatment-emergent adverse events ([2]; patients with severe renal impairment (n = 8)) of the same molecule?
The treatment-emergent adverse events was “Two patients with severe renal impairment reported three treatment-emergent adverse events”.

And the “dose proportionality / linearity of systemic exposure” value [3]?
The value was “dose proportional over the dose range of 60 mg to 240 mg qd; also recorded: dose-linear and time-independent PK”.

And the “geometric mean accumulation ratio after repeat dosing” value [3]?
The value was 1.9 to 2.4.

What about the “oral dose excreted unchanged in the urine” value [3] of the same molecule?
Its value is “approximately 25%”.

What about the “median time to reach maximum plasma concentration (Tmax)” value ([3]; postdose) of the same molecule?
The value was 1 to 3 h.

And the “decrease of systemic exposure (AUC)” value ([4]; coadministration of strong CYP3A inducers)?
Its value is 80%.

And the “increase of systemic exposure (AUC)” value ([4]; coadministration of strong CYP3A inhibitors)?
The value was 101%.

And the “effect on systemic exposure (AUC)” value ([4]; coadministration with a strong inhibitor of CYP2C8)?
Its value is “did not meaningfully affect”.

What about the “effect of mild or moderate renal impairment on brigatinib exposure / PK” value [5] of the same molecule?
The value was “not associated with clinically meaningful effects on brigatinib PK; also recorded: not found to impact brigatinib exposure”.

And the “potency and selectivity as inhibitor of native EML4-ALK” value (native EML4-ALK)?
The value was “more potent and selective inhibitor of native EML4-ALK”.
